Measurements: BindingDB's records for patent US12503484 (Seismic Pharmaceuticals, 2025)

Target: Sodium/potassium-transporting ATPase subunit alpha-1 (Canis lupus familiaris, UniProt P50997)
Assay: Inhibition of Dog Renal Na+/K+ ATPase Activity
Experimental: Increasing concentrations of the standard ouabain, or tested compound, were incubated with 0.3 μg of purified dog kidney enzyme for 10 min at 37° C. in 120 μl final volume of a medium containing 140 mM NaCl, 3 mM MgCl2, 50 mM Hepes-Tris, 3 mM ATP, pH 7.5. Then, 10 μl of a solution containing 10 mM KCl and 20 nCi of 32P-ATP (3-10 Ci/mmol, Perkin Elmer) were added. The reaction was allowed to continue for 15 min at 37° C. and then stopped by acidification with 20% v/v ice-cold perchloric acid. 32P was separated by centrifugation with activated Charcoal (Norit A, Serva) and the radioactivity was counted. The inhibitory activity was expressed as percent of the control samples carried out in the absence of ouabain, or tested compound.

Row | SMILES | IC50
1 | CCCC(=O)OCCC1CC[C@@]2(C)C(C1)[C@@H](O)C[C@@H]1[C@@H]2CC[C@]2(C)C(=O)CC[C@@H]12 (some centres not stated) [US12503484, Compound CVie217] | > 100 µM
2 | CCCCC(C(=O)O)C1CC[C@@]2(C)C(C1)[C@H](O)C[C@@H]1[C@@H]2CC[C@]2(C)C(=O)CC[C@@H]12 (some centres not stated) [US12503484, Compound CVie219] | > 100 µM
